Calls of active or inactive are those of the source.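 How the source made its calls: active means inhibition of binding above 0%; inactive means the rest.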
System: anti-Dsg3 scFv antibody binding to human desmoglein-3
Experiment: inhibitors of pemphigus antibody-Dsg3 interaction – biochemical, ELISA, orthogonal assay for pemphigus antibody inhibitor project, confirmation (AID 624333)
Settings: OD, at 200 µM, active compounds read high

inhibition of binding | Compound
-4% (inactive) | CCOc1ccccc1NCc1cc(=O)oc2cc(C)c(O)cc12
-2% (inactive) | CC(C)OC(=O)CSc1nc2c(cc1C#N)CCCCC2
5% | CC(=O)Nc1ccc(-c2cc(-c3ccccc3)nc(-c3ccccc3)n2)cc1
-2% (inactive) | COc1ccc(OC)c(NC(=O)c2nc(-c3ccccc3)oc2C)c1
-33% (inactive) | Cc1c(C(=O)Nc2ccc(OCc3ccccc3)cc2)cccc1[N+](=O)[O-]
8% | Cc1cc(SCC(=O)Nc2ccc3[nH]c(=O)[nH]c3c2)nc2ccccc12
-5% (inactive) | CCc1ccc(OCC(=O)Nc2ccc(N3CCN(C(=O)c4ccccc4)CC3)cc2)cc1
-32% (inactive) | COc1ccccc1NC(=O)Cn1nnc(-c2ccccc2NC(=O)c2cc3ccccc3oc2=O)n1
0% (inactive) | Cn1c(SCC(=O)NC2CCCCC2)nnc1-c1cc2cc(Cl)ccc2o1
-18% (inactive) | NS(=O)(=O)c1ccc(NC(=O)c2cc(-c3cccs3)nc3ccccc23)cc1
-14% (inactive) | OCc1cn(-c2ccccc2)nc1-c1ccc(-c2nn(-c3ccccc3)cc2CO)cc1
-19% (inactive) | Cc1ccc(C(C)C)c(OCC(=O)Nc2ccc(N3CCN(S(C)(=O)=O)CC3)cc2)c1
-14% (inactive) | CSc1ccccc1OCc1cc(C(=O)NCCC2=CCCCC2)no1
-3% (inactive) | COc1cc(OC)cc(N(C(=O)C2COc3ccccc3O2)C(C(=O)NC2CCCCC2)c2ccc(O)cc2)c1 (centres undefined)

From PubChem BioAssay AID624333 (NMMLSC, 2012)
